# According to ChEMBL document CHEMBL3507680, “University of Dundee, Gates Library screen for HepG2 cell viability”:
# Test: Human HepG2 cell viability assay in 384 well format
# Format: toxicity, cell-based
# Set-up: dose 125 nL, time 70.5 hour; concentration not given beside the values
# Conditions: HepG2 cells, read-out: Inhibition
row,Structure (SMILES),cytotoxicity at 70.5 h [%]
1,CNC(=O)NCCc1csc2ccccc12,-0.00639
2,COCCN1CCC(NCc2c(C(C)C)nn(C)c2N(C)C)CC1,24.2
3,c1ccc2nc(N3CCCC3c3nnc4n3CCCCC4)cnc2c1 (stereo not given),0.321
4,Cn1nc(CNC(=O)C2CCCC2)cc1C1CC1,38.9
5,Cc1cnn(CC2CCCN2C(=O)Cc2c(C)noc2Cl)c1 (stereo not given),-4.41
6,O=C(NCc1ccc(OCC2CC2)nc1)c1c(F)cccc1F,-3.71
7,O=C(c1ccc(F)c(F)c1)N1CCN2CCCC2C1 (stereo not given),3.92
8,Cc1ccccc1-c1cccc(CN2C[C@H]3C(=O)NC[C@@]3(C(=O)O)C2)c1,12.4
9,CCn1c(N)nc2cc(C(=O)N3CCCN(C)CC3)cnc21,3.17
10,Cn1nc(C2CCN(C(=O)CCN3CCOCC3)CC2)c2cccnc21,-2.43
11,CCOCCN1CCN(c2ccc(C#N)cn2)CC1CC (stereo not given),1.12
12,OCC(O)CSCc1cc(Cl)ccc1Cl (stereo not given),-3.91
13,O=C(c1cccnc1)N1CCn2nnc(COc3ccccn3)c2C1,-14.2
14,CCn1cc2c(n1)CN(Cc1sccc1C)CC2COCC1CC1 (stereo not given),-7.71
15,COc1ccccc1Oc1cncc(C2CCCN(CC(N)=O)C2)n1 (stereo not given),11.9
16,O=C(C1CC1)N1CCC(O)(CN2CCN(c3ccccc3)CC2)C1 (stereo not given),-4.63
17,O=C(NCCOCCO)c1cnc(-c2ccccc2)nc1O,-7.84
18,COC(=O)COc1nc(CC(C)C)c2c(c1C#N)CCCC2,7.01
19,Cc1nn(C)c(Cl)c1C1CCCN1C(=O)c1ccc[nH]1 (stereo not given),9.9
20,NCCCC(=O)NCC1(O)CCN(c2ccnc3cccnc23)C1 (stereo not given),-7.06
21,CCn1nc(C)c(CCNC(=O)c2cccc(NCC(=O)O)c2)c1C,1.17
22,CCC(NCc1nccn1C)c1nc(C(F)(F)F)cs1 (stereo not given),-0.765
23,N#Cc1c(F)cccc1Nc1cnn(CC(N)=O)c1,-112

row,Structure (SMILES),cytotoxicity at 70.5 h [%]
1,COc1ccc(-c2cc(C(=O)Nc3nc[nH]n3)[nH]n2)cc1,-12.1
2,CCc1nccn1-c1nccnc1C1CCN(C(=O)COC)CC1,14.8
3,O=S(=O)(NC(CO)Cc1c[nH]c2ccccc12)c1cncc(F)c1 (stereo not given),-4.62
4,Cc1nn(C)c(N(C)C)c1CNCc1cccnc1,16.2
5,Cc1ccc([C@]2(O)CC[C@H]3CN(Cc4ccccc4F)C[C@H]32)nc1,-9.24
6,CC1c2ncc(CNC(=O)C3CC3)n2CCN1CC1CCC1 (stereo not given),-10.3
7,Cn1nc(C(=O)NCc2cccs2)c2c1CCS(=O)(=O)C2,-6.12
8,COc1ccc(CN[C@H]2CC[C@@]3(CCC(=O)N3)CC2)cc1,-6.23
9,CCOC(=O)C1(CCOC)CCCN(Cc2nccn2CC)C1 (stereo not given),-18.3
10,COCC(C)(C#N)NC(=O)COc1ccccc1Br (stereo not given),-0.405
11,Cc1nc(CN(C)C2CCN(CCn3cc(C#N)cn3)C2)no1 (stereo not given),8.59
12,c1cnn(CC2CN(Cc3nnc(C4CC4)o3)CCO2)c1 (stereo not given),-4.26
13,CCCC(=O)N1CCC(N2CC[C@@](O)(CCOC)[C@H](C)C2)CC1,-5
14,CN(CCCc1cc(-c2cccc(F)c2)n[nH]1)C(=O)CCn1cncn1,-13.6
15,CCc1nc(C)c(-c2nccn2CC2CCCCO2)[nH]1 (stereo not given),-10.5
16,Cc1cc(C(=O)N2CCOC(c3nc(C(C)C)n[nH]3)C2)c(C)s1 (stereo not given),-4.17
17,Fc1cccnc1N1CCC2(CNCCC2(F)F)C1 (stereo not given),12.5
18,CN(C)CC(C)(C)Cn1cnc(-c2ccccc2)c1-c1ccncc1,-9.09
19,Cc1nc(COC[C@@]23CCC[C@@H]2CN(Cc2cnn(C)c2)C3)cs1,-5
20,CCCc1cc(=O)[nH]c(-c2ccccc2CN(C)CCC(C)C)n1,18.2
21,CN(C)c1ccc(CN2CCC(C(O)Cc3ccccc3)CC2)cn1 (stereo not given),-3.93
22,Cc1nn(C)c(C)c1-c1ccc(=O)n(C(C)C(=O)NC(C)(C)C)n1 (stereo not given),3.31
23,CC(C)CC(C)NCCCN1CCCN(C)CC1 (stereo not given),21.1

row,Structure (SMILES),cytotoxicity at 70.5 h [%]
1,COCc1cc(CNCc2c(C)n(CC(N)=O)c3ccccc23)n[nH]1,-9.7
2,CCC1CCCN(C(=O)NCc2cccnc2-n2cccn2)C1 (stereo not given),-4.16
3,Cc1noc(Cl)c1CCC(=O)N1CCc2sccc2C1,-1.52
4,CC(=O)NCCNC(=O)CN1CCOC(Cn2cc(C)cn2)C1 (stereo not given),-5.91
5,O=C(Nc1ccc(CC(=O)N2CCCC2)cc1)NC1CC1,-7.44
6,Cc1c(CNCCCOc2cccnc2)c2ccccc2n1CC(N)=O,5.45
7,Cc1cccc(C2(C(=O)NCC3CCN(CC(F)(F)F)C3)CCC2)c1 (stereo not given),-1.39
8,CCN(C(=O)CN1CCCC1c1c(C)nn(C)c1OC)C1CC1 (stereo not given),-6.09
9,C=C(C)COc1cccc(CNC(CC(C)C)c2ncnn2C)c1 (stereo not given),-3.16
10,CCN(CC)CC1CCN(C(=O)CCn2cccn2)CC1,-1.21
11,O=C(NCCNc1ccc(Br)cn1)c1ccc(O)cc1,-6.46
12,Cc1nn(C)cc1-c1ccnc(NCCN)n1,-8.28
13,COc1ccc(CNc2nc(C3CC3)no2)cc1OC,-1.13
14,COc1cccc(C(=O)N2CCc3ncnc(C)c3CC2)c1,-5.4
15,Cc1ncc(CN2CCOC(c3ccc(-c4ccccc4F)cn3)C2)s1 (stereo not given),49.2
16,CCOC(=O)Cn1nnnc1-c1ccccc1,-0.715
17,Cc1occc1C(=O)N1C[C@@H]2CCCO[C@@H]2[C@H](N(C)Cc2ccco2)C1,-0.88
18,CCn1nc2c(cc1=O)CN(Cc1nc(C)c(C)o1)CC2,-15.3
19,CC(C)Oc1cc(N2CC[C@@H](N3CCOCC3)[C@H](O)C2)nc(N)n1,-6.54
20,CCN(CC1CN(Cc2ccccn2)CCO1)c1cccnn1 (stereo not given),-9.99
21,CCC[C@@H]1CN(C(=O)c2c(F)ccc(OC)c2F)C[C@H]1C(=O)O,-0.545
22,Cc1cc2n(n1)CC(CNC1CCN(Cc3ccccn3)CC1)CN2 (stereo not given),-6.35
23,COCCN1CCO[C@@H]2CN(Cc3ccc(C)s3)C[C@@H]2C1,-2.59

row,Structure (SMILES),cytotoxicity at 70.5 h [%]
1,Cc1ccc(C(=O)NC2CCN(Cc3cccc4c3OCCO4)CC2)s1,-2.59
2,Cc1nn2cnnc2c(C)c1CCC(=O)Nc1nc2c(s1)CCC2,-13
3,COc1cccc(-c2cc(NCc3cscn3)n(C)n2)c1,-7.72
4,COc1ccc2cc(C(=O)NCCc3nc(C)no3)[nH]c2c1,5.04
5,Cn1cc(CCNCc2cc(Br)c3c(c2)OCO3)cn1,23.7
6,CN(C(=O)COc1ccc(F)cc1)[C@@H]1CC[C@@H](n2ccnc2)[C@@H]1O,-4.21
7,Cc1ccc(-c2ccc(C(=O)NCC(N)=O)c(F)c2)cc1,1.46
8,CCCN1CCN(C(=O)CCn2cccc2)CC1,-5.28
9,O=S(=O)(NCc1cccnc1OC1CCCC1)N1CCOCC1,-10.2
10,CC(C)[C@@H]1CN(C(=O)NCc2ccco2)C[C@H]1NS(=O)(=O)N(C)C,17.9
11,c1c2c(nn1CC1CCOCC1)C(CNC1CCOCC1)OCC2 (stereo not given),7.06
12,CC(O)CN1CCC(CNCc2ccccc2Cl)CC1 (stereo not given),-7.56
13,Cc1cc(NC(=O)NCc2cccnc2OC(C)C)n(C)n1,-6.35
14,O=C(OCCF)c1cccc(C(=O)N2CCCC2)n1,26.7
15,CN(CC1CCCCO1)c1nc(-c2cccnc2)nc2c1CCNC2 (stereo not given),-17.5
16,CC(C)c1nnc2n1CCN(C(=O)c1cccc(S(C)(=O)=O)c1)C2,17
17,COc1cc(C2CC(=O)NCc3nc4sccn4c32)cc(OC)c1O (stereo not given),-13.6
18,Cc1ccc(C2CSCCN2CCS(C)(=O)=O)cc1 (stereo not given),-12.2
19,O=C(C1CCCN(Cc2cccnc2)C1)N1CCc2sccc2C1 (stereo not given),-5.24
20,c1cc2n(n1)CC(CNCc1ccc(OC3CCCCC3)nc1)CN2 (stereo not given),0.985
21,O=C(Nc1ccccc1)[C@H]1O[C@H](CCN2CCNCC2)CC[C@@H]1O,0.346
22,Cc1cc(C)c(CNC(=O)N2CCN(c3ncccn3)CC2)c(=O)[nH]1,0.0542
23,O=C(Cn1nnn(-c2cccs2)c1=O)NCC1CCOC1 (stereo not given),11.8

row,Structure (SMILES),cytotoxicity at 70.5 h [%]
1,O=C(Cc1ccc2c(c1)CCCC2)NCCc1ccccn1,-5.18
2,COc1ccc(N(C)C(=O)c2cccc(S(C)(=O)=O)c2)cn1,-3.33
3,Cn1cc(CN2C[C@@H]3COC[C@@H](C(=O)N4CCCCO4)[C@@H]3C2)cn1,-1.2
4,Cc1cc(C(=O)N2CCCC(c3cc(C(F)(F)F)[nH]n3)C2)[nH]n1 (stereo not given),3.57
5,CCOc1ccc(CN(C)C(=O)NC(C)c2nncn2C)cc1 (stereo not given),8.83
6,Cc1csc(C2CCCN(C(=O)Cn3ccccc3=O)C2)n1 (stereo not given),-3.71
7,CCOCC(=O)NC(C#N)c1cnn(-c2ccccc2)c1 (stereo not given),-9.95
8,O=C(NCCc1cccs1)N1CCCC1CCCO (stereo not given),-9.42
9,Cn1c2c(c(=O)n1C)CN(C(=O)c1cccc(F)c1)CCC2,1.87
10,Cc1ccc(N2CC[C@H]3[C@@H]2CCC(=O)N3CCN2CCOCC2)nn1,-6.53
11,Cc1nc(Cn2c3c(ccc2=O)CCN(CC2CCC2)CC3)cs1,-9.15
12,O=C(Cc1ccc2c(c1)CCO2)N1CCN(c2nccs2)CC1,-2.11
13,Cc1cncc(C2CCCN2CCO)n1 (stereo not given),-9.94
14,Cc1ccc(C2CCCCCN2CCNS(C)(=O)=O)o1 (stereo not given),-5.05
15,CN(C)C(=O)Cn1cc(C(=O)NCCc2ccc(Cl)cc2Cl)nn1,-0.867
16,Cc1cc(C(C)NC(=O)N2CCC(n3cncn3)CC2)c(C)s1 (stereo not given),-17.7
17,CN1C(=O)C2(CCN(CCO)C2)c2ccccc21 (stereo not given),-5.56
18,CC(C)(C)OC(=O)N1CSC[C@@H]1C(=O)NCc1ccsc1,-1.79
19,Cc1nc([C@@H]2C[C@@H]3CCN(C(=O)c4ccnnc4)C[C@H]3O2)sc1C,5.38
20,CCn1cc(NC(=O)N2CCN(CCSc3ccccc3)CC2)cn1,-7.68
21,CCOC1CCCN(C(=O)c2ccccc2NCc2cccnc2)C1 (stereo not given),15.9
22,Cn1cnc2c1C(COCc1ccccc1)N(Cc1ccncc1)CC2 (stereo not given),-3.01
23,Cc1nc(O)cc(CN2C[C@H](NS(=O)(=O)N(C)C)[C@@H](C3CC3)C2)n1,-3.51
